Where “and” joins values, the source holds several entries; their conditions need not be identical. Identical values can stand only once. Like-named read-outs stand apart in the source and are kept apart here.
Columns and labels:
Assay in all cases: Greenhouse test, pre-emergence treatment
KCHSC = format: in vivo, Kochia scoparia; conditions: Bassia scoparia, pre-emergence, 480 h, pre-emergence, 125 g ai/ha; read-out: observed % activity 20 DAT
Procedure, shortened: (§1)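 Damage was rated on a 0-100 scale, with 100 meaning no emergence or full destruction of aerial parts. Observed combination effects were set against the additive Colby expectation E=X+Y−(X·Y/100). Spray liquor was water-based, from 10% emulsion concentrates, applied pre-emergence right after sowing in loamy sand (about 3.0% humus). Plants were held at 10-25 °C or 20-35 °C for 2 to 4 weeks.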

SETVI = format: in vivo, Setaria viridis; conditions: Setaria viridis, 480 h, read-out: observed % activity 20 DAT
Procedure, shortened: as §1

LOLMU = format: in vivo, Lolium multiflorum; conditions: pre-emergence
Procedure, shortened: as §1

COMBE = format: in vivo, Commelina benghalensis; conditions: Commelina benghalensis, pre-emergence, 480 h, pre-emergence, 250 g ai/ha; read-out: observed % activity 20 DAT
Procedure, shortened: as §1

GALAP = format: in vivo, Galium aparine; conditions: Galium aparine, pre-emergence, 480 h; for inhibition at 125 g/ha: 125 g ai/ha
Procedure, shortened: as §1

ELEIN = format: in vivo, Eleusine indica; conditions: Eleusine indica, 480 h, read-out: observed % activity 20 DAT
Procedure, shortened: as §1

SORHA = format: in vivo, Sorghum halepense; conditions: Sorghum halepense, pre-emergence, 480 h; 250 g ai/ha, 20 DAT; read-out: observed % activity
AVEFA = format: in vivo, Avena fatua; conditions: for inhibition at 125 g/ha / inhibition at 250 g/ha: Avena fatua, 480 h; for inhibition at 125 g/ha: 125 g ai/ha
Procedure, shortened: as §1

ECHCG = format: in vivo, Echinocloa crus-galli; conditions: Echinochloa crus-galli, 480 h, read-out: observed % activity 20 DAT
Procedure, shortened: as §1

CENCY = format: in vivo; conditions: 480 h, read-out: observed % activity 20 DAT
EPHHL = format: in vivo, Euphorbia heterophylla; conditions: Euphorbia heterophylla, pre-emergence, 480 h, pre-emergence, 250 g ai/ha; read-out: observed % activity 20 DAT
Procedure, shortened: as §1

PHACA = format: in vivo, Phalaris canariensis; conditions: for inhibition at 250 g/ha: 250 g ai/ha
Procedure, shortened: as §1

POLCO = format: in vivo, Polygonum convolvulus; conditions: Fallopia convolvulus, pre-emergence, 480 h, pre-emergence
Procedure, shortened: as §1

ALOMY = format: in vivo, Alopecurus myosuroides
Procedure, shortened: as §1

BRADC = format: in vivo, Brachiaria decumbens
Procedure, shortened: as §1

[1] = 62, 5 g ai/ha, 20 DAT, read-out: observed % activity

With CSc1nnc(C(C)(C)C)c(=O)n1N [metribuzin] the inhibition at 125 g/ha (KCHSC) was 95%, the inhibition at 125 g/ha (SETVI; 125 g ai/ha) was 65% and the inhibition at 250 g/ha (SETVI; 250 g ai/ha) was 95%. For the same molecule, the inhibition at 125 g/ha (LOLMU; Lolium multiflorum, 480 h, 125 g ai/ha, 20 DAT, read-out: observed % activity) was 60%, the inhibition at 250 g/ha (LOLMU; Lolium multiflorum, 480 h, 250 g ai/ha, 20 DAT, read-out: observed % activity) was 90% and the inhibition at 62.5 g/ha (LOLMU; Lolium multiflorum, 480 h, 62.5 g ai/ha, read-out: observed % activity 20 DAT) was 0%. For the same molecule, the inhibition at 125 g/ha (LOLMU; Lolium multiflorum, 480 h, 125 g ai/ha, read-out: observed % activity 20 DAT) was 55%, the “observed % activity 20 DAT” value (LOLMU; 125 g ai/ha) was 65% and the “observed % activity 20 DAT” value (LOLMU; 250 g ai/ha) was 45% and 75%. The inhibition at 250 g/ha (COMBE) was 90%, the inhibition at 125 g/ha (GALAP; 20 DAT, read-out: observed % activity) was 30% and the inhibition at 250 g/ha (GALAP; 250 g ai/ha, 20 DAT, read-out: observed % activity) was 30%. For the same molecule, the inhibition at 125 g/ha (GALAP; read-out: observed % activity 20 DAT) was 20%, the pest or weed control at 62.5 g/ha (GALAP; [1]) was 30% and the inhibition at 125 g/ha (ELEIN; 125 g ai/ha) was 98%. It also gave an inhibition at 250 g/ha (ELEIN; 250 g ai/ha) of 98%, an inhibition at 250 g/ha (SORHA) of 45% and an observed % activity (AVEFA; 62, 5 g ai/ha, 20 DAT) of 0%. For the same molecule, the inhibition at 125 g/ha (AVEFA; pre-emergence, 20 DAT, read-out: observed % activity) was 10%, the inhibition at 250 g/ha (AVEFA; pre-emergence, 250 g ai/ha, 20 DAT, read-out: observed % activity) was 55% and the inhibition at 125 g/ha (AVEFA; pre-emergence, pre-emergence, read-out: observed % activity 20 DAT) was 80%. The inhibition at 250 g/ha (AVEFA; pre-emergence, pre-emergence, 250 g ai/ha, read-out: observed % activity 20 DAT) was 70%, the “observed % activity 20 DAT” value (AVEFA; pre-emergence, 250 g ai/ha) was 65% and the inhibition at 125 g/ha (ECHCG; 125 g ai/ha) was 80%. The inhibition at 250 g/ha (ECHCG; 250 g ai/ha) was 95%, the inhibition at 125 g/ha (CENCY; 125 g ai/ha) was 75% and the inhibition at 250 g/ha (CENCY; 250 g ai/ha) was 85%. The inhibition at 250 g/ha (EPHHL) was 85%, the observed % activity (PHACA; 62, 5 g ai/ha, 20 DAT) was 30% and the inhibition at 125 g/ha (PHACA; Phalaris canariensis, pre-emergence, 480 h, 125 g ai/ha, 20 DAT, read-out: observed % activity) was 70%. For the same molecule, the inhibition at 250 g/ha (PHACA; Phalaris canariensis, pre-emergence, 480 h, 20 DAT, read-out: observed % activity) was 90%, the inhibition at 62.5 g/ha (PHACA; Phalaris canariensis, pre-emergence, 480 h, pre-emergence, 62.5 g ai/ha, read-out: observed % activity 20 DAT) was 15% and the inhibition at 125 g/ha (PHACA; Phalaris canariensis, pre-emergence, 480 h, pre-emergence, 125 g ai/ha, read-out: observed % activity 20 DAT) was 65%. The inhibition at 250 g/ha (PHACA; Phalaris canariensis, pre-emergence, 480 h, pre-emergence, read-out: observed % activity 20 DAT) was 95%, the “observed % activity 20 DAT” value (PHACA; pre-emergence, 125 g ai/ha) was 75% and the inhibition at 125 g/ha (POLCO; 125 g ai/ha, read-out: observed % activity 20 DAT) was 20%. It also gave an inhibition at 250 g/ha (POLCO; 250 g ai/ha, read-out: observed % activity 20 DAT) of 20%, a pest or weed control at 62.5 g/ha (POLCO; [1]) of 0% and an observed % activity (ALOMY; 62, 5 g ai/ha, 20 DAT) of 35%. The inhibition at 250 g/ha (ALOMY; Alopecurus myosuroides, pre-emergence, 480 h, 250 g ai/ha, 20 DAT, read-out: observed % activity) was 98%, the inhibition at 62.5 g/ha (ALOMY; Alopecurus myosuroides, pre-emergence, 480 h, pre-emergence, 62.5 g ai/ha, read-out: observed % activity 20 DAT) was 0% and the inhibition at 125 g/ha (ALOMY; Alopecurus myosuroides, pre-emergence, 480 h, pre-emergence, 125 g ai/ha, read-out: observed % activity 20 DAT) was 80%. The inhibition at 250 g/ha (ALOMY; Alopecurus myosuroides, pre-emergence, 480 h, pre-emergence, 250 g ai/ha, read-out: observed % activity 20 DAT) was 90%, the “observed % activity 20 DAT” value (ALOMY; pre-emergence, 250 g ai/ha) was 75% and the observed % activity (BRADC; 62, 5 g ai/ha, 20 DAT) was 50%. The inhibition at 62.5 g/ha (BRADC; Urochloa decumbens, pre-emergence, 480 h, pre-emergence, 62.5 g ai/ha, read-out: observed % activity 20 DAT) was 45% and the “observed % activity 20 DAT” value (BRADC; pre-emergence, 250 g ai/ha) was 40%.

Reference: patent US9999222B2, “Herbicidal combination comprising azines” (BASF SE, priority 2014, dated 2018)
